According to US20210236487A1, “Methods and Compositions for Treatment of Cancer with PARP Inhibitors” (Rush University Medical Center, priority 2018, published 2021):
Where “and” joins values, the source holds several entries; their conditions need not be identical. Equal entries are not always repeated. Entries after “also recorded” stand apart in the source; their conditions may differ.

Tests used:
[1] = Hellman, 1964; cited from earlier work
[2] = Response to folic acid supplementation in patients on olaparib; type: in vivo, human; settings: for Response to folic acid supplementation: on olaparib
Experimental: (§1) A formal assessment of folic acid level along with a chart review of olaparib treated ovarian cancer patients was conducted to determine the frequency of severe folic acid deficiency in this population and the impact of replacement therapy on outcome. This was an IRB-approved study performed at Rush University Medical Center from Dec. 1, 2016 to Apr. 3, 2017. Data collection was conducted in accordance with good clinical practice guidelines and the provisions of declaration of Helsinki. Data collected included cancer history, date of initiation of olaparib, duration of olaparib use, CBC data, peripheral smear/RBC morphology data, Vitamin B12, folic acid levels, iron studies with ferritin, reticulocyte count, LDH levels, haptoglobin levels, TSH levels, any treatment administered for hematological toxicities including nutritional supplementation or blood product transfusion, dose reductions or cessation of olaparib use and indication for such intervention were collected for all patients.

[3] = test system: gBRCA-mutated advanced ovarian cancer; settings: Phase II trials, cited from earlier work
[4] = Hematologic toxicity (Hgb, MCV, other abnormalities, transfusion, dose reduction) in olaparib-treated patients (chart review / case series); type: in vivo, human; settings: for Transfusion requirement: secondary to anemia noted after administration of Olaparib; for Transfusion required: secondary to anemia noted while patient receiving olaparib
Experimental: as §1

[5] = cited from earlier work
ovarian cancer = assay: Treatment outcome on olaparib (case series); type: in vivo, human
Experimental: as §1

[6] = Serum folic acid level in olaparib-treated cancer patients (chart review / case series); type: in vivo, human; settings: for Folic Acid Level: on olaparib, reference range 7.0-31.4 ng/mL
Experimental: as §1

[7] = Table 1, patient/age c1 A/61, c2 B/78, c3 C/63, c4 D/57
[8] = Table 2a, patient/age c1 A/61, c2 B/78, c3 C/63, c4 D/57
[9] = Table 2b, patient/age c1 E, c2 F, c3 G, c4 H
[10] = Table 3a, patient/age c1 A/62, c2 B/78, c3 C/63, c4 D/57
[11] = Table 3b, patient/age c1 E, c2 F, c3 G, c4 H

In the case of `CN(Cc1cnc2nc(N)nc(N)c2n1)c1ccc(C(=O)N[C@@H](CCC(=O)O)C(=O)O)cc1` [Methotrexate], the serum folate level [1] is given as “variably decreased”.
With `Nc1nc2ncc(CNc3ccc(C(=O)N[C@@H](CCC(=O)O)C(=O)O)cc3)nc2c(=O)[nH]1` [folic acid] the “anemia and macrocytosis after folic acid supplementation” value ([2]; Patient A on olaparib, oral folic acid 1 mg daily) was “improved”, the “Hgb after folic acid supplementation” value ([2]; Patient B, two weeks after starting folic acid 1 mg daily, no longer required blood transfusions) was “markedly improved” and the “folic acid level after supplementation” value ([2]; Patient C on olaparib, two weeks of folic acid 1 mg daily, minimally increased from prior value) was 2.9 ng/mL. For the same compound, the “folic acid level after supplementation” value ([2]; Patient C, folic acid supplementation increased to 2 mg TID) was “normalized”, the “Hgb stabilized after supplementation” value ([2]; Patient C, folic acid supplementation increased to 2 mg TID, olaparib briefly held) was “around 9 g/dL” and the “folic acid level after supplementation” value ([2]; Patient D on olaparib, folic acid 1 mg daily) was “subsequent improvement”. For the same compound, the “Response to folic acid supplementation” value ([2]; Table 1, patient/age c1 A/61, c2 B/78, c3 C/63, c4 D/57, improvement of folic acid level to within the reference range (≥7.0 ng/mL)) was “Yes”, the “Response to folic acid supplementation” value ([2]; Table 2a, patient/age c1 A/61, c2 B/78, c3 C/63, c4 D/57, improvement of folic acid level to within the reference range (≥7.0 ng/mL)) was “Yes and No” and the “Response to folic acid supplementation” value ([2]; Table 2b, patient/age c1 E, c2 F, c3 G, c4 H, improvement of folic acid level to within the reference range (≥7.0 ng/mL)) was “Yes”. The “Response to folic acid supplementation” value ([2]; Table 3a, patient/age c1 A/62, c2 B/78, c3 C/63, c4 D/57, improvement of folic acid level to within reference range) was “Yes”, the “Response to folic acid supplementation” value ([2]; Table 3b, patient/age c2, improvement of folic acid level to within reference range) was “Yes” and the “correction of olaparib-induced folic acid deficiency” value ([2]; folic acid supplementation at variable doses) was “can correct”.
For `O=C(c1cc(Cc2n[nH]c(=O)c3ccccc23)ccc1F)N1CCN(C(=O)C2CC2)CC1` [olaparib, 4-[(3-[(4-cyclopropylcarbonyl)piperazin-4-yl]carbonyl)-4-fluorophenyl]methyl(2H)-phthalazin-1-one], the progression-free survival ([3]; advanced ovarian cancer) is given as “significantly prolonged”, the “overall response rate (ORR)” value ([3]; gBRCA-mutated advanced ovarian cancer, three or more previous lines of chemotherapy) is given as 34% and the “patients who developed transfusion-dependent anemia” value ([4]; 4 cases, in the course of treatment with olaparib) is given as “Three of the four”. For the same compound, the “hgb (severe anemia)” value ([4]; Case report, Patient A, after 5 weeks of olaparib therapy, requiring blood transfusion) was 6.6 g/dL, the “MCV (macrocytic anemia)” value ([4]; Case report, Patient A, at the time of Hematology evaluation) was 110.7 fL and the “Hgb (macrocytic anemia)” value ([4]; Case report, Patient A, at the time of Hematology evaluation, olaparib reduced to 100 mg BID) was 9.0 g/dL. For the same compound, the “Hgb (acute decrease)” value ([4]; Patient B, five weeks after starting olaparib, from 8 g/dL, requiring blood transfusion) was 6.8 g/dL, the “Hgb (further decrease)” value ([4]; Patient C on olaparib, two weeks after start of folic acid 1 mg daily, requiring blood transfusion) was 6.3 g/dL and the “Hgb (drop in baseline)” value ([4]; Patient C, approximately 4 weeks after starting olaparib, from 14 g/dL) was 10 g/dL. The “Hgb (mild anemia)” value ([4]; Patient D, while on olaparib for 6 months) was 9 to 10 g/dL, the “Dose Reduction or Delay of Olaparib/Cause” value ([4]; Table 1, patient/age c1 A/61, c2 B/78, c3 C/63, c4 D/57, cause of dose change) was “anemia” and the “Dose Reduction or Delay of Olaparib/Cause” value ([4]; Table 1, patient/age c1 A/61, c2 B/78, c3 C/63, c4 D/57, dose reduced or delayed) was “Yes/ and No”. For the same compound, the “Other Hematologic Abnormalities” value ([4]; Table 1, patient/age c1 A/61, c2 B/78, c3 C/63, c4 D/57, noted at time of initial Hematology assessment) was “Leukopenia and None and Thrombo-”, the “Hgb Nadir” value ([4]; Table 1, patient/age c1 A/61, c2 B/78, c3 C/63, c4 D/57, on olaparib, reference range 12.0-16.0 g/dL) was 6.6 g⁻¹ dL⁻¹ and 6.3 g⁻¹ dL⁻¹ and 8.8 g⁻¹ dL⁻¹ and the “MCV Nadir” value ([4]; Table 1, patient/age c1 A/61, c2 B/78, c3 C/63, c4 D/57, on olaparib, reference range 82.0-103.0 fL) was 110.7 fL and 102.0 fL and 91.6* fL and 98.1 fL. The Transfusion requirement [4, 7] was “Yes and No”, the “Dose Reduction or Delay of Olaparib/Cause” value [4, 8] was “Yes, anemia and Yes, and No and anemia” and the “Other Hematologic Abnormalities” value ([4]; Table 2a, patient/age c1 A/61, c2 B/78, c3 C/63, c4 D/57, noted at time of initial Hematology assessment) was “Leukopenia; and None and Thrombo-”. For the same compound, the “Hgb Nadir” value ([4]; Table 2a, patient/age c1 A/61, c2 B/78, c3 C/63, c4 D/57, on olaparib, reference range 12.0-16.0 g/dL) was 6.6 g⁻¹ dL⁻¹ and 6.3 g⁻¹ dL⁻¹ and 8.8 g⁻¹ dL⁻¹, the “MCV Nadir” value ([4]; Table 2a, patient/age c1 A/61, c2 B/78, c3 C/63, c4 D/57, on olaparib, reference range 82.0-103.0 fL) was 110.7 fL and 102.0 fL and 91.6* fL and 98.1 fL and the Transfusion requirement [4, 8] was “Yes and No”. For the same compound, the “Dose Reduction or Delay of Olaparib/Cause” value [4, 9] was “No and Yes, neutropenia, and Yes, folic acid and anemia, fatigue, and dyspnea”, the “Other Hematologic Abnormalities” value ([4]; Table 2b, patient/age c1 E, c2 F, c3 G, c4 H, noted at time of initial Hematology assessment) was “Leukopenia;; also recorded: Leukopenia; also recorded: Thrombocytopenia” and the “MCV Nadir” value ([4]; Table 2b, patient/age c1 E, c2 F, c3 G, c4 H, on olaparib, reference range 82.0-103.0 fL) was 112.0 fL and 115.8 fL and 93.2 fL and 98.9 fL. For the same compound, the Transfusion requirement [4, 9] was “No and Yes”, the “Dose Reduction or Delay of Olaparib/Cause” value [4, 10] was “Yes/anemia and No” and the “Hgb Nadir” value ([4]; Table 3a, patient/age c1 A/62, c2 B/78, c3 C/63, c4 D/57, lowest value documented while receiving olaparib, reference range 12.0 to 16.0 g/dL) was 6.6 g⁻¹ dL⁻¹ and 6.3 g⁻¹ dL⁻¹ and 8.8 g⁻¹ dL⁻¹. The “Other Hematologic Abnormalities” value ([4]; Table 3a, patient/age c1 A/62, c2 B/78, c3 C/63, c4 D/57, noted at time of initial hematologic assessment) was “Thrombo- and Leukopenia; and None”, the Transfusion required [4, 10] was “Yes and No” and the “MCV Nadir” value ([4]; Table 3a, patient/age c1 A/62, c2 B/78, c3 C/63, c4 D/57, while receiving olaparib, reference range 82.0 to 103.0 fL) was 110.7 fL and 102.0 fL and 91.6 fL and 98.1 fL. The “Hgb Nadir” value ([4]; Table 3b, patient/age c1 E, c2 F (200 mg once per day), c3 G, c4 H (metastatic breast cancer), lowest value while receiving olaparib, reference range 12.0 to 16.0 g/dL) was 10.8 g⁻¹ dL⁻¹ and 8.1 g⁻¹ dL⁻¹ and 12.2 g⁻¹ dL⁻¹ and 10.4 g⁻¹ dL⁻¹, the “Dose Reduction or Delay of Olaparib/Cause” value ([4]; Table 3b, patient/age c1 E, c2 F (reduced dose 200 mg once per day from the onset), c3 G/52, c4 H/35) was “No and No^k and Yes/rash” and the “Other Hematologic Abnormalities” value ([4]; Table 3b, patient/age c1 E, c2 F, c3 G, c4 H, noted at time of initial hematologic assessment) was “Leukopenia; and None and Thrombo-”. The Transfusion required [4, 11] was “No”, the “MCV Nadir” value ([4]; Table 3b, patient/age c1 E, c2 F, c3 G, c4 H, while receiving olaparib, reference range 82.0 to 103.0 fL) was 105.6 fL and 103.1 fL and 93.5 fL and 85.8 fL and the “myelodysplastic syndrome/Acute Myeloid Leukemia, olaparib-treated patients” value ([5]; Olaparib PI) was 2%. For the same compound, the “adverse reactions leading to discontinuation of olaparib, patients” value ([5]; clinical trials (Olaparib PI)) was 9%, the “adverse reactions leading to dose interruptions, patients” value ([5]; clinical trials (Olaparib PI)) was 26% and the “adverse reactions leading to dose reductions, patients” value ([5]; clinical trials (Olaparib PI)) was 15%. For the same compound, the “Treatment outcome: discontinued because of” value (ovarian cancer; [10]) was “progression; also recorded: refractory anemia; also recorded: diarrhea”, the “Treatment outcome: treatment stopped after” value (ovarian cancer; Table 3b, patient E/73) was “after 20 days” and the “Treatment outcome: discontinued because of / status” value (ovarian cancer; [11]) was “months; ongoing; also recorded: progression”. For the same compound, the “folic acid level (severe folic acid deficiency) in three additional patients” value ([6]; 3 other women, after taking olaparib for at least four weeks) was < 1.6 ng/mL, the folate level ([6]; Case report, Patient A on olaparib, Normal: 7-31.4 ng/mL) was < 1.6 ng/mL and the “folic acid level (severe folic acid deficiency)” value ([6]; Patient B on olaparib) was < 1.6 ng/mL. For the same compound, the “folic acid level (severe folic acid deficiency)” value ([6]; Patient C, approximately 4 weeks after starting olaparib) was < 1.6 ng/mL, the “folic acid level (severely low)” value ([6]; Patient D on olaparib) was 1.6 ng/mL and the “Folic Acid Level” value [6, 7] was <1.6 ng/mL and 1.6 ng/mL. The “Folic Acid Level” value [6, 8] was <1.6 ng/mL and 1.6 ng/mL, the “Folic Acid Level” value [6, 9] was 4.9 ng/mL and 5.2 ng/mL and 3.7 ng/mL and 6.2 ng/mL and the “folate level after initiation of olaparib” value ([6]; available laboratory data of the case series) was “drops precipitously within weeks”.
